Measured values: ChEMBL document CHEMBL3991947, “D-serine transporter inhibitors as pharmaceutical compositions for the treatment of central nervous system disorders” (2014)
Calls of active or inactive are those of the source.

Experiments:
[1] = biological target: T1, Glutamate NMDA receptor (Rattus norvegicus) (UniProt P35439+Q00959+Q00960+Q00961+Q62645+Q8VHN2+Q9R1M7); assay: Potentiation of NMDA receptor mediated excitatory post-synaptic currents in the CA1 region of rat hippocampal slices upto 1 hr by whole-cell patch-clamp assay
Rattus norvegicus [2] = species: Rattus norvegicus; assay: Inhibition of D-serine transporter in Sprague-Dawley rat visual cortex assessed as LTP threshold after 15 mins
[3] = biological target: T2, Amino acid transporter (Rattus norvegicus) (UniProt Q9Z1J7); assay: Inhibition of ASCT2 mediated [3H]-D-serine uptake in rat hippocampal astrocytes at 1 mM after 5 mins by beta counting analysis; format: cell-based
T2 sequence (whole entry): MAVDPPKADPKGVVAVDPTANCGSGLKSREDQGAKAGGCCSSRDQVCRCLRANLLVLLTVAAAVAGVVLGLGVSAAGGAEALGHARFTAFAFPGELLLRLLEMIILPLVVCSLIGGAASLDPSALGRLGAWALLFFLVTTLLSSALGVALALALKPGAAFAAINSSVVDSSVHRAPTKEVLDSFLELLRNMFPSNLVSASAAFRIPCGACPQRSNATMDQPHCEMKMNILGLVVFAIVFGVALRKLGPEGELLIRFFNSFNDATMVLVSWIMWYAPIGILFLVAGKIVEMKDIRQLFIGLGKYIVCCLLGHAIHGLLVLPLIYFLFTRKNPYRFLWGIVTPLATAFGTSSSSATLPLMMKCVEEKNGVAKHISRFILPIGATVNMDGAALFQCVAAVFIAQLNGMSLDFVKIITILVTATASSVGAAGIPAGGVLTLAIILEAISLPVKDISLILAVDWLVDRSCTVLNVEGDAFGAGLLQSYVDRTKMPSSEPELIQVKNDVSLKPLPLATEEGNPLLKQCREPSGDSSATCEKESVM

Rattus norvegicus [4] = assay: Antipsychotic activity in rat model of schizophrenia assessed as […] in prepulse inhibition at 600 mg/kg; format: functional, organism-based
Rattus norvegicus [5] = assay: Effect on absolute startle response in rat model of schizophrenia at 600 mg/kg; format: ADME, organism-based; conditions: in vivo
[6] = biological target: T2, Amino acid transporter (Rattus norvegicus); assay: Inhibition of ASCT2 in rat hippocampal astrocytes assessed as reduction in [3H]-D-serine uptake in presence of L-glutamine after 5 mins by beta counting analysis; format: cell-based
Mus musculus [7] = assay: Reduction in amphetamine-induced hyperactivity in systemically dosed C57B/6 mouse model of schizophrenia administered at 30 mins after habituation in open field apparatus followed by amphetamine injection measured for 1 hr post dose; format: functional, organism-based
Mus musculus [8] = assay: Reduction in amphetamine-induced hyperactivity in C57B/6 mouse model of schizophrenia at 0.3 mg/kg, ip administered at 30 mins after habituation in open field apparatus followed by amphetamine injection measured for 1 hr post dose; format: functional, organism-based
Mus musculus [9] = assay: Reduction in amphetamine-induced hyperactivity in C57B/6 mouse model of schizophrenia at 1 mg/kg administered at 30 mins after habituation in open field apparatus followed by amphetamine injection measured for 1 hr post dose; format: functional, organism-based
Rattus norvegicus [10] = species: Rattus norvegicus; assay: Inhibition of D-serine transporter in rat hippocampal slices assessed as increase in LTP at 100 uM
[11] = biological target: T2, Amino acid transporter (Rattus norvegicus); assay: Inhibition of ASCT2 in rat hippocampal astrocytes assessed as reduction in [3H]-D-serine uptake in presence of L-t-40HPro after 5 mins by beta counting analysis; format: cell-based
[12] = biological target: T1, Glutamate NMDA receptor (Rattus norvegicus); assay: Activation of NMDA receptor in rat visual cortex assessed as increase in theta burst stimulation of LTP after 15 mins followed by LTP induction by electrophysiological assay
[13] = biological target: T1, Glutamate NMDA receptor (Rattus norvegicus); assay: Activation of NMDA receptor in rat visual cortex assessed as increase in theta burst stimulation of LTP after 15 mins followed by LTP induction in presence of DAAO by electrophysiological assay
[14] = biological target: T1, Glutamate NMDA receptor (Rattus norvegicus); assay: Potentiation of NMDA receptor mediated excitatory post-synaptic currents in the CA1 region of rat hippocampal slices after 1 hr by electrophysiological assay
Rattus norvegicus [15] = assay: Antipsychotic activity in rat model of schizophrenia assessed as […] in prepulse inhibition at 15 mg/kg; format: functional, organism-based
Rattus norvegicus [16] = assay: Effect on absolute startle response in rat model of schizophrenia at 15 mg/kg; format: ADME, organism-based; conditions: in vivo

Row | SMILES | Activity [1] | Activity (Rattus norvegicus [2]) | inhibition [3] | other results
1 | N[C@@H](CCC(=O)OCc1ccccc1)C(=O)O | inactive |  |  | 
2 | N[C@H](C(=O)O)c1ccccc1 | inactive | 10 µM | > 25% | 
3 | N[C@@H](CO)C(=O)O | inactive |  | > 25% | 
4 | N[C@H](CO)C(=O)O [(D)-SERINE] | inactive | 3 µM | > 25% | Activity (Rattus norvegicus [4]): inactive; Activity (Rattus norvegicus [5]): Non-Toxic
5 | O=C(O)[C@@H]1C[C@@H](O)CN1 | inactive | 3 µM | > 25% | inhibition [6]: Active
6 | O=C(O)[C@@H]1CCCN1 | inactive |  | > 25% | 
7 | NC(=O)C[C@H](N)C(=O)O | inactive | 3 µM | > 25% | 
8 | N[C@H](C(=O)O)c1ccc(F)cc1 | inactive | 0.3 µM | > 25% | Activity (Mus musculus [7]): Dose-dependent effect; Activity (Mus musculus [8]): Active
9 | O=C(O)[C@@H]1C[C@@H](Cc2ccc(Cl)cc2Cl)CN1 |  |  |  | Activity (Mus musculus [9]): Active
10 | N[C@H](C(=O)O)C1CC1 |  | 1 µM | > 25% | 
11 | N[C@@H](CCC(=O)Nc1ccc([N+](=O)[O-])cc1)C(=O)O | inactive | 100 µM | > 25% | inhibition (Rattus norvegicus [10]): Active
12 | NC(=O)CC[C@H](N)C(=O)O | inactive |  | > 25% | inhibition [11]: Active
13 | N[C@H](C(=O)O)c1ccc(O)cc1 [OXFENICINE] | Dose-dependent effect | 10 µM | > 25% | Activity [12]: Dose-dependent effect; Activity [13]: inactive; Activity [14]: inactive; Activity (Rattus norvegicus [15]): Active; Activity (Rattus norvegicus [16]): Non-Toxic
14 | N[C@@H](CSCc1ccccc1)C(=O)O | inactive |  | > 25% | 
15 | NC(C(=O)O)c1ccccc1F (centres undefined) | inactive | > 300 µM | > 25% | 
16 | N[C@@H](CSc1ccccc1)C(=O)O | inactive |  | > 25% | 
17 | O=C(O)C1C[C@@H](Cc2cccc(Br)c2)CN1 (single isomer, unassigned) |  |  | > 25% | 
18 | N[C@H](C(=O)O)c1ccco1 |  |  | > 25% | 
19 | O=C(O)C1C[C@@H](Cc2ccncc2)CN1 (single isomer, unassigned) |  |  | > 25% | 
20 | COC(=O)[C@@H](N)c1ccccc1 |  |  | > 25% | 
